Earlier results, collected in patent US20170367972A1, “Formulations and Methods of Treatment for Treating Nail Fungal Infections” (priority 2016, published 2017).

What was measured:
[1] = system: dermatophytes
[2] = system: Candida albicans
[3] = system: Candida spp.
[4] = system: dermatophytes; remark: listed apart in the source
[5] = system: nondermophytic molds

| Compound | activity against dermatophytes [1] | activity against Candida albicans [2] | activity against Candida spp. [3] | effectiveness in dermatophytic infections [4] | activity against nondermophytic molds [5] |
| --- | --- | --- | --- | --- | --- |
| CN(C/C=C/C#CC(C)(C)C)Cc1cccc2ccccc12 [Terbinafine, terbinafine] | fungicidal activity | only fungistatic activity | – | – | – |
| COC1=CC(=O)C[C@@H](C)[C@]12Oc1c(Cl)c(OC)cc(OC)c1C2=O [griseofulvin] | active in vitro against most dermatophytes | – | no activity | effective only for dermatophytic infections | no activity |
